Values of other authors, collected in patent US20070178172A1, “Composition for reducing blood lipids” (MAXLUCK BIOTECHNOLOGY CORP., priority 2004, published 2007).

Tested on: obesity mouse
Conditions: Cefalu et al. 2002

chromium picolinate
effect on blood lipids: could reduce the blood lipids
